Measurements taken from patent publication US10077261B2, “Imidazolin-5-one derivative useful as FASN inhibitors for the treatment of cancer” (Janssen Pharmaceutica NV, priority 2012, dated 2018).

What was measured:
[1] = target: T1, hFASN enzyme (full length) (Homo sapiens, UniProt P49327); assay: Fatty Acid Synthase (FASN) inhibition scintillation proximity assay; type: biochemical; conditions: for inhibition at 10 µM: read-out: Human FASN % inhibition @ 10 μM, 10 μM test compound; for IC50: read-out: Human FASN pIC50 (converted)
T1 construct: 10 μL hFASN enzyme (full length, 300 ng, purified in house); made in house
How it was run: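 Scintillation proximity format: in-house full-length enzyme, 300 ng per well, pH 7.5 phosphate/DTT buffer, ³H-acetyl-CoA and malonyl-CoA. Emission counted on LEADseeker at 610 nm at least 24 h after stopping.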

[2] = test system: LNCaP-Vancouver prostate cells; assay: In vitro LNCaP Vancouver prostate cell proliferation assay in lipid reduced medium; type: cell-based; conditions: read-out: pIC50 LNCaP_Vancouver prostate cell (converted)
[3] = test system: PC-3M-Luc-C6 prostate cells; assay: In vitro PC-3M-Luc-C6 prostate cell proliferation assay in lipid reduced medium; type: cell-based; conditions: 96 h, read-out: pIC50 PC-3M-Luc-C6 prostate cell (converted)
[4] = target: Fatty Acid Synthase Keto-reductase Domain (FASN KR) (Homo sapiens, UniProt P49327); assay: Fatty Acid Synthase keto-reductase domain (FASN KR) inhibition, NADPH oxidation at 340 nm
Description: After 20 minutes incubation at room temperature the plate was measured again (T2).
The decrease in absorbance was calculated as (Absorbance before incubation T1)−(Absorbance following incubation T2).
A plot of Controlmin versus test compound concentration was fitted to a 4-parameter logistic curve using a non-linear least squares regression method.

A2780 ovarian cells [5] = assay: A2780 ovarian cell proliferation assay in lipid reduced medium, with palmitate (MTT); type: cell-based; conditions: Homo sapiens, A2780, 96 h; read-out: pIC50 A2780 Ovarian Cell, With Palmitate (converted)
How it was run: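 In this palmitate-supplemented format, compound dilutions (30 μM down to 0.01 μM) are added to cells in lipid-reduced serum with 25 μM palmitate, 0.2% fatty-acid-free BSA and 0.25% ethanol. After four days (96 h) MTT absorbance at 544 nm is recorded and fitted by minimum sum of squares.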

A2780 ovarian cells [6] = assay: A2780 ovarian cell proliferation assay in lipid reduced medium, without palmitate (MTT); type: cell-based; conditions: Homo sapiens, A2780, 96 h; read-out: pIC50 A2780 Ovarian Cell, Without Palmitate (converted)

T1 sequence (P49327 whole entry): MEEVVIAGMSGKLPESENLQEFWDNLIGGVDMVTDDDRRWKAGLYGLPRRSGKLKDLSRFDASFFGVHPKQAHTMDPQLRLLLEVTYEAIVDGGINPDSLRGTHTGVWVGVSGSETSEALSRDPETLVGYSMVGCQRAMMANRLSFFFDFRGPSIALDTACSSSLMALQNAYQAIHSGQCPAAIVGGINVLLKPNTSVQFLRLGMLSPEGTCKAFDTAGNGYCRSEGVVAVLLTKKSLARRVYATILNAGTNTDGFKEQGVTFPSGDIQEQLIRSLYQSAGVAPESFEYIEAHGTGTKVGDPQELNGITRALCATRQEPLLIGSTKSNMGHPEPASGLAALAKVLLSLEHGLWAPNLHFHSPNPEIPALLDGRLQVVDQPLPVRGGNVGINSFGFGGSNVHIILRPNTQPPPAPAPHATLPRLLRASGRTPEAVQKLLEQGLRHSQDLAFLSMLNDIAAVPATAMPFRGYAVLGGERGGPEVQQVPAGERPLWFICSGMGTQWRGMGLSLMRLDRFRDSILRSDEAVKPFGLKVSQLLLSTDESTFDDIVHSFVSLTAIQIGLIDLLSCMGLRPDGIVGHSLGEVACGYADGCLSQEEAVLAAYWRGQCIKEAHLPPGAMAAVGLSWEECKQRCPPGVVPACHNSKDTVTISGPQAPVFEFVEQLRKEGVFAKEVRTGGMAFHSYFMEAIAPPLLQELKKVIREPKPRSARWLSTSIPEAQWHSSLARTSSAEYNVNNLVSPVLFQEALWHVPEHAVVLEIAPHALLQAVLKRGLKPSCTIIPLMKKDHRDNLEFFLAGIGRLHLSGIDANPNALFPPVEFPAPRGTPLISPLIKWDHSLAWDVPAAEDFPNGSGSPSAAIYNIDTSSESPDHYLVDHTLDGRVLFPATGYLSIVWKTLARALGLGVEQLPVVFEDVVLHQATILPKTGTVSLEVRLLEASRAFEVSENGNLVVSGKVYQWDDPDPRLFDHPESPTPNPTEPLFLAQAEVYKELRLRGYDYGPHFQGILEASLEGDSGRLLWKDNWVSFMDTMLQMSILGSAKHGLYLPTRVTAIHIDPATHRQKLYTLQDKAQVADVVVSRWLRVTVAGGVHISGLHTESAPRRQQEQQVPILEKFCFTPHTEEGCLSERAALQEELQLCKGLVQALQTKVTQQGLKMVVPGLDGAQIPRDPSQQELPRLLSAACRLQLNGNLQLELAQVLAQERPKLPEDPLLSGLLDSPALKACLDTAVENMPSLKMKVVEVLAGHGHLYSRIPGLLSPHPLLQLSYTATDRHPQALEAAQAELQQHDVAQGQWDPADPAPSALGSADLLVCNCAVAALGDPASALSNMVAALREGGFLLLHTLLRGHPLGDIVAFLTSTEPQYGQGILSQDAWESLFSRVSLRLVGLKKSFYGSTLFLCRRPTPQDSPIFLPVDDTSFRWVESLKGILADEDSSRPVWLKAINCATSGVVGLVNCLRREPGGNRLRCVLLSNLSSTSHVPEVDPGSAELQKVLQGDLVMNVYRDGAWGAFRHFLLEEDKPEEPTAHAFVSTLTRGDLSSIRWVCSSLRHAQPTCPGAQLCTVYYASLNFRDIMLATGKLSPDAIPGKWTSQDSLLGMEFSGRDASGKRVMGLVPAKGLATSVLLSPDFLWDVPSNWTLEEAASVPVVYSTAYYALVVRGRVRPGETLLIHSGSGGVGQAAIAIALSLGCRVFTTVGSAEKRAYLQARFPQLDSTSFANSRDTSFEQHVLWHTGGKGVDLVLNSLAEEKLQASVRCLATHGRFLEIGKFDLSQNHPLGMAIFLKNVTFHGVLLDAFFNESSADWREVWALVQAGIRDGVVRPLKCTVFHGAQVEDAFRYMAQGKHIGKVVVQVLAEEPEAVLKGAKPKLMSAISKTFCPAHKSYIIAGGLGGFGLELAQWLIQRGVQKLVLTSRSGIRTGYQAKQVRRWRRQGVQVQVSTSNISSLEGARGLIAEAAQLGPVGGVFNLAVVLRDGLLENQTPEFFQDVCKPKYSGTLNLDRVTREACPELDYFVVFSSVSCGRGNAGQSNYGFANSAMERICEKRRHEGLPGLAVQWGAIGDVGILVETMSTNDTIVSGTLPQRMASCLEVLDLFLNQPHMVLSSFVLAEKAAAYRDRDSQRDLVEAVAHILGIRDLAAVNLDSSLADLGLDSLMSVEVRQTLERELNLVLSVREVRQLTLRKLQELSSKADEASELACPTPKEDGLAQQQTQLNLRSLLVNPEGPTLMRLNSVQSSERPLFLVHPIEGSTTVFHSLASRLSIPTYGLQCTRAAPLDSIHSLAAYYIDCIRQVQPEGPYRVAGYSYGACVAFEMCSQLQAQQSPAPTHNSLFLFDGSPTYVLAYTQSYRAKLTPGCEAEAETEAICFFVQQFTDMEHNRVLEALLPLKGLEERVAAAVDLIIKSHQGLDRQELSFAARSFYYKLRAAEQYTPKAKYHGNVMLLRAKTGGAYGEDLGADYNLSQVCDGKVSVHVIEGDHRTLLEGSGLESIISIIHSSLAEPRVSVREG
Sequence of Fatty Acid Synthase Keto-reductase Domain (FASN KR) (P49327 whole entry, the tested form may be a part): as the sequence (P49327 whole entry) above

Row | Compound | inhibition at 10 µM [1] | IC50 [1] | IC50 [2] | IC50 [3] | IC50 [4] | IC50 (A2780 ovarian cells [5]) | IC50 (A2780 ovarian cells [6])
1 | Cc1cc(-c2ccc3c(cnn3C)c2)ccc1C1=NC2(CC2)C(=O)N1CC1CN(C(=O)CC2CC2)C1 [compound 499, 6-{[1-(Cyclopropylacetyl)azetidin-3-yl]methyl}-5-[2-methyl-4-(1-methyl-1H-indazol-5-yl)phenyl]-4,6-diazaspiro[2.4]hept-4-en-7-one] | 96% | 245 nM | 4270 nM | 457 nM | 479 nM |  | 
2 | O=C(C1CC1)N1CC[C@@H](CN2C(=O)C3(CC3)N=C2c2ccc(-c3cnc4ccccc4c3)cc2F)C1 [compound 257, (R)-6-((1-(cyclopropanecarbonyl)pyrrolidin-3-yl)methyl)-5-(2-fluoro-4-(quinolin-3-yl)phenyl)-4,6-diazaspiro[2.4]hept-4-en-7-one] | 99% | 49 nM | 263 nM | 70.8 nM | 200 nM |  | 
3 | Cn1ncc2c(-c3ccc(C4=NC5(CC5)C(=O)N4CC4CN(C(=O)C5CC5)C4)cc3)cccc21 [compound 515, 6-{[1-(Cyclopropylcarbonyl)azetidin-3-yl]methyl}-5-[4-(1-methyl-1H-indazol-4-yl)phenyl]-4,6-diazaspiro[2.4]hept-4-en-7-one] | 96% | 182 nM | 2140 nM | 562 nM | 437 nM |  | 
4 | O=C(C1CC1)N1CC(CN2C(=O)C3(CC3)N=C2c2ccc(-c3ccc4cnc(F)cc4c3)cc2)C1 [compound 502, 6-{[1-(Cyclopropylcarbonyl)azetidin-3-yl]methyl}-5-[4-(3-fluoroisoquinolin-6-yl)phenyl]-4,6-diazaspiro[2.4]hept-4-en-7-one] | 94% | 355 nM | 4170 nM | 1170 nM | 2140 nM |  | 
5 | CC(O)C(=O)N1CC(CN2C(=O)C3(CCOC3)N=C2c2ccc(-c3ccc4cccnc4c3)cc2)C1 (stereo not drawn) [compound 715, 3-{[1-(2-Hydroxypropanoyl)azetidin-3-yl]methyl}-2-(4-quinolin-7-ylphenyl)-7-oxa-1,3-diazaspiro[4.4]non-1-en-4-one] | 86% | 724 nM | > 10000 nM | 5010 nM | 5500 nM |  | 
6 | O=C(C1CC1)N1CC(CN2C(=O)C3(CC3)N=C2c2ccc(-c3cnc4ccccc4c3)cc2)C1 [compound 519, 6-{[1-(Cyclopropylcarbonyl)azetidin-3-yl]methyl}-5-(4-quinolin-3-ylphenyl)-4,6-diazaspiro[2.4]hept-4-en-7-one] | 96% | 158 nM | 2690 nM | 550 nM | 389 nM |  | 
7 | Cc1cc(-c2cccc3c2cnn3C)ccc1C1=NC2(CC2)C(=O)N1CC1CN(C(=O)C2(C)CC2)C1 [compound 599, 6-({1-[(1-Methylcyclopropyl)carbonyl]azetidin-3-yl}methyl)-5-[2-methyl-4-(1-methyl-1H-indazol-4-yl)phenyl]-4,6-diazaspiro[2.4]hept-4-en-7-one] | 102% |  | 912 nM | 105 nM |  | 5500 nM | 145 nM
8 | Cc1cc(C2=NC3(CC3)C(=O)N2C[C@@H]2CCN(C(=O)C3CC3)C2)ccc1-c1ccc2cc[nH]c2c1 [compound 239, (R)-5-(4-(1H-indol-6-yl)-3-methylphenyl)-6-((1-(cyclopropanecarbonyl)pyrrolidin-3-yl)methyl)-4,6-diazaspiro[2.4]hept-4-en-7-one] | 96% |  | 813 nM | 135 nM |  | > 10000 nM | 60.3 nM
9 | Cc1cc(-c2ccc3c(c2)ncn3C)ccc1C1=NC2(CC2)C(=O)N1CC1CN(C(=O)C2(O)CC2)C1 [compound 628, 6-({1-[(1-Hydroxycyclopropyl)carbonyl]azetidin-3-yl}methyl)-5-[2-methyl-4-(1-methyl-1H-benzimidazol-5-yl)phenyl]-4,6-diazaspiro[2.4]hept-4-en-7-one] | 100% |  | 724 nM | 162 nM |  | > 10000 nM | 66.1 nM
10 | Cc1c(-c2ccc(C3=NC4(CC4)C(=O)N3CC3CN(C(=O)C4CC4)C3)cc2)ccc2c1cnn2C [compound 491, 6-{[1-(Cyclopropylcarbonyl)azetidin-3-yl]methyl}-5-[4-(1,4-dimethyl-1H-indazol-5-yl)phenyl]-4,6-diazaspiro[2.4]hept-4-en-7-one] | 100% |  | 1000 nM | ~178 nM |  | > 10000 nM | 72.4 nM
11 | O=C(C1CC1)N1CC(CN2C(=O)C3(CC3)N=C2c2ccc(-c3nc4cc(Cl)ccc4s3)cc2F)C1 [compound 643, 5-[4-(5-Chloro-1,3-benzothiazol-2-yl)-2-fluorophenyl]-6-{[1-(cyclopropylcarbonyl)azetidin-3-yl]methyl}-4,6-diazaspiro[2.4]hept-4-en-7-one] | 96% | 380 nM | 3020 nM | 977 nM |  | ~10000 nM | ~676 nM

More lines, now with the values ahead:

Row | inhibition at 10 µM [1] | IC50 [1] | IC50 [2] | IC50 [3] | IC50 [4] | IC50 (A2780 ovarian cells [5]) | IC50 (A2780 ovarian cells [6]) | Compound
12 | 92% | 234 nM | 3800 nM | ~871 nM | 513 nM |  |  | COC(=O)N1CC2(C1)N=C(c1ccc(-c3ccc4c(cnn4C)c3)cc1)N(C[C@@H]1CCN(C(=O)[C@H]3CCCO3)C1)C2=O [compound 739, Methyl 6-[4-(1-methyl-1H-indazol-5-ylyl)phenyl]-8-oxo-7-({(3R)-1-[(2R)-tetrahydro-furan-2-ylcarbonyl]pyrrolidin-3-yl}methyl)-2,5,7-triazaspiro[3.4]oct-5-ene-2-carboxylate]
13 | 100% | 64.6 nM | 550 nM | 117 nM | 275 nM |  |  | O=C([C@H]1CCCO1)N1CC[C@@H](CN2C(=O)C3(CCOCC3)N=C2c2ccc(-c3ccc4cccnc4c3)cc2)C1 [compound 663, 2-(4-Quinolin-7-ylphenyl)-3-({(3R)-1-[(2R)-tetrahydro-furan-2-ylcarbonyl]pyrrolidin-3-yl}methyl)-8-oxa-1,3-diazaspiro[4.5]dec-1-en-4-one]
14 | 89% | 417 nM | 6030 nM | ~1170 nM | 3630 nM |  |  | Cn1cc2cc(-c3ccc(C4=NC5(CC5)C(=O)N4CC4CN(C(=O)C5CC5)C4)cc3)ccc2n1 [compound 507, 6-{[1-(Cyclopropylcarbonyl)azetidin-3-yl]methyl}-5-[4-(2-methyl-2H-indazol-5-yl)phenyl]-4,6-diazaspiro[2.4]hept-4-en-7-one]
15 | 96% | 200 nM | 3310 nM | 1290 nM | 537 nM |  |  | COC(=O)N1CC2(C1)N=C(c1ccc(-c3ccc4occc4c3)cc1)N(C[C@@H]1CCN(C(=O)C3CC3)C1)C2=O [compound 733, Methyl 6-[4-(1-benzofuran-5-yl)phenyl]-7-{[(3R)-1-(cycloprropylcarbonyl)pyrrolidin-3-yl]methyl}-8-oxo-2,5,7-triazaspiro[3.4]oct-5-ene-2-carboxylate]
16 | 98% | 269 nM | 1780 nM | 501 nM | 603 nM |  |  | Cn1cc(-c2ccc(-c3ccc(C4=NC5(CCOC5)C(=O)N4C[C@@H]4CCN(C(=O)C5CC5)C4)cc3)cc2)cn1 (stereo partly drawn) [compound 676, 3-{[(3R)-1-(Cyclopropylcarbonyl)pyrrolidin-3-yl]methyl}-2-[4′-(1-methyl-1H-pyrazol-4-yl)biphenyl-4-yl]-7-oxa-1,3-diazaspiro[4.4]non-1-en-4-one]
17 | 97% | 309 nM | 3800 nM | 589 nM | 661 nM |  |  | Cn1cc(-c2ccc(-c3ccc(C4=NC5(CCOCC5)C(=O)N4C[C@@H]4CCN(C(=O)[C@H]5CCCO5)C4)cc3)cc2)cn1 [compound 657, 2-[4′-(1-Methyl-1H-pyrazol-4-yl)biphenyl-4-yl]-3-({(3R)-1-[(2R)-tetrahydro-furan-2-ylcarbonyl]pyrrolidin-3-yl}methyl)-8-oxa-1,3-diazaspiro[4.5]dec-1-en-4-one]
18 | 103% |  | 407 nM | 51.3 nM |  | > 10000 nM | ~40.7 nM | Cn1ncc2cc(-c3ccc(C4=NC5(CC5)C(=O)N4C[C@@H]4CCN(C(=O)C5CCO5)C4)cc3)ccc21 (stereo partly drawn) [compound 204, 5-(4-(1-methyl-1H-indazol-5-yl)phenyl)-6-(((3R)-1-(oxetane-2-carbonyl)pyrrolidin-3-yl)methyl)-4,6-diazaspiro[2.4]hept-4-en-7-one]
19 | 99% | 214 nM | 2950 nM | 832 nM | 525 nM |  |  | O=C([C@H]1CCCO1)N1CC[C@@H](CN2C(=O)C3(CCOC3)N=C2c2ccc(-c3ccc4occc4c3)cc2)C1 (stereo partly drawn) [compound 688, 2-[4-(1-Benzofuran-5-yl)phenyl]-3-({(3R)-1-[(2R)-tetrahydro-furan-2-ylcarbonyl]pyrrolidin-3-yl}methyl)-7-oxa-1,3-diazaspiro[4.4]non-1-en-4-one]
